These results are taken from BindingDB's records for doi:10.1021/jm960083n (Dupont Pharmaceuticals, 1996).

The term pKi denotes the Ki on a negative log10 scale, so that one unit is a factor of ten.

pKi: −log10 of the molar value.

The target of this assay is T1, Dimer of Gag-Pol polyprotein [489-587] (Human immunodeficiency virus 1, UniProt P12497).
T1 construct: 489-587
Kind of assay: Protease Inhibition Assay. The following applies: pH 5.5; 37 °C. On the procedure: Inhibition of HIV protease was measured by assay of the cleavage of a fluorescent peptide substrate. The fluorescent product (2-aminobenzoyl-Ala-Thr-His-Gln-Val-Tyr) was separated from the fluorescent substrate by anion-exchange HPLC on a Mono-Q anion-exchange column (Pharmacia), and fluorescence was monitored at an excitation wavelength of 330 nm and an emission wavelength of 430 nm. Ki values for inhibitor binding were estimated at fixed concentrations of substrate and inhibitor from fractional activity measurements by use of the modified Michaelis-Menten equation.
Regarding `COc1cc(C[C@@H]2[C@H](O)[C@@H](O)[C@@H](Cc3cc(OC)cc(OC)c3)N(Cc3cccc(C(C)=O)c3)C(=O)N2Cc2cccc(C(C)=O)c2)cc(OC)c1` [(4R,5S,6S,7R)-4,7-bis[(3,5-dimethoxyphenyl)methyl]-1,3-bis[(3-acetylphenyl)methyl]-5,6-dihydroxy-1,3-diazepan-2-one], the pKi is 9.40.

As for `CC(=O)c1cc(CN2C(=O)N(Cc3ccc(F)c(C(C)=O)c3)[C@H](Cc3ccc4c(c3)OCO4)[C@H](O)[C@@H](O)[C@H]2Cc2ccc3c(c2)OCO3)ccc1F` [(4R,5S,6S,7R)-Hexahydro-5,6-dihydroxy-1,3-bis(4-fluoro-3-acetylbenzyl)-4,7-bis((3,4-(methylenedioxy)phenyl)methyl)-2H-1,3-diazapin-2-one], the pKi is 8.82.

As to `CC(=O)c1cccc(CN2C(=O)N(Cc3cccc(C(C)=O)c3)[C@H](Cc3ccc4c(c3)N(C)CCO4)[C@H](O)[C@@H](O)[C@H]2Cc2ccc3c(c2)N(C)CCO3)c1` [(4R,5S,6S,7R)-Hexahydro-5,6-dihydroxy-1,3-bis(3-acetylbenzyl)-4,7-bis((4-methyl-3,4-dihydro-2H-benzo[b][1,4]-oxazin-6-yl)methyl)-2H-1,3-diazapin-2-one], the pKi is 10.10.

For the compound `CC(=O)c1cccc(CN2C(=O)N(Cc3cccc(C(C)=O)c3)[C@H](Cc3ccc4c(c3)OCO4)[C@H](O)[C@@H](O)[C@H]2Cc2ccc3c(c2)OCO3)c1` [(4R,5S,6S,7R)-Hexahydro-5,6-dihydroxy-1,3-bis(3-acetylbenzyl)-4,7-bis((3,4-(methylenedioxy)phenyl)methyl)-2H-1,3-diazapin-2-one], the pKi is 10.37.
